Results taken from patent US20240270762A1, “PENICILLIN-BINDING PROTEIN INHIBITORS” (priority 2021, published 2024).
Converted amounts (≈) assume the structure as drawn.

Assays:
P. aeruginosa CDC-0110 = assay: microbe, parasite or virus in culture; assay type: cell-based; settings: Pseudomonas aeruginosa, CDC0110, read-out: Minimum inhibitory concentration, P. aeruginosa CDC-0110
P. aeruginosa CDC-0090 = assay: microbe, parasite or virus in culture; assay type: cell-based; settings: Pseudomonas aeruginosa, CDC0090, read-out: Minimum inhibitory concentration, P. aeruginosa CDC-0090
P. aeruginosa CDC-0095 = assay: microbe, parasite or virus in culture; assay type: cell-based; settings: Pseudomonas aeruginosa, CDC0095, read-out: Minimum inhibitory concentration, P. aeruginosa CDC-0095
A. baumannii ATCC 17978 = assay: microbe, parasite or virus in culture; assay type: cell-based; settings: Acinetobacter baumannii, ATCC17978, read-out: MIC, A. baumannii ATCC 17978
A. baumannii CDC-0083 = assay: microbe, parasite or virus in culture; assay type: cell-based; settings: Acinetobacter baumannii, CDC0083, read-out: MIC, A. baumannii CDC-0083
A. baumannii PBP1a = biological target: T1, A. baumannii PBP1a (Acinetobacter baumannii, UniProt A0ABX6CK30); assay: Bocillin-FL competition binding via gel filtration, A. baumannii PBP1a; settings: competition binding assay using Bocillin-FL via gel filtration; read-out: A. baumannii PBP1a Potency
T1 sequence (A0ABX6CK30 1-851): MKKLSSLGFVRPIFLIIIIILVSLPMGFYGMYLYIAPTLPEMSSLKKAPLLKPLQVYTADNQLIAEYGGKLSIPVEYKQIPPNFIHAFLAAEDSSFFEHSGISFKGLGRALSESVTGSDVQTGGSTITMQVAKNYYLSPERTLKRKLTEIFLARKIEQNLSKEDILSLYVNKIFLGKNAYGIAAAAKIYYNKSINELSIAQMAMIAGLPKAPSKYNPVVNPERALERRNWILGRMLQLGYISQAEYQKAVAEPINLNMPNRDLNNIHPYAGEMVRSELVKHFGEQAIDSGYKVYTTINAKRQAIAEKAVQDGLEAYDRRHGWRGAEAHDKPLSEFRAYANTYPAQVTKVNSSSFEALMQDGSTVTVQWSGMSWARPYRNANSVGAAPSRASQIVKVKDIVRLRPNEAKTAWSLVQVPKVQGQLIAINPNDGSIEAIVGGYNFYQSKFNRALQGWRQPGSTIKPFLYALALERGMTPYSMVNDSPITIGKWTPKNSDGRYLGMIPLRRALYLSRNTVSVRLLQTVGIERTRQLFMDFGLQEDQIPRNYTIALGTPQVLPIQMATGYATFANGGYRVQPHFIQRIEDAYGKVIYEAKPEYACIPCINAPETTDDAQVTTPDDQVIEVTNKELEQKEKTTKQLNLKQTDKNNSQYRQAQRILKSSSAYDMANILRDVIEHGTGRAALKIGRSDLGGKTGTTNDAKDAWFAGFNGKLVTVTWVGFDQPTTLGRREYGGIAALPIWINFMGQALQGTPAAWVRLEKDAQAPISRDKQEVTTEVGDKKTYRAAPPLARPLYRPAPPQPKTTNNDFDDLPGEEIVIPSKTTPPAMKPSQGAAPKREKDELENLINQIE
How it was run: (§1)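 Enzyme pre-incubated with increasing inhibitor concentrations, then Bocillin-FL added for 15 min further incubation. Bocillin-FL-bound PBP separated by gel filtration and fluorescence read. EC50 from fitting fraction PBP bound vs inhibitor concentration to a Hill-type equation (ymin, ymax, n).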

A. baumannii ATCC 19606 = assay: microbe, parasite or virus in culture; assay type: cell-based; settings: Acinetobacter baumannii, ATCC19606, read-out: MIC, A. baumannii ATCC 19606
P. aeruginosa ATCC 35151 = assay: microbe, parasite or virus in culture; assay type: cell-based; settings: Pseudomonas aeruginosa, ATCC35151, read-out: Minimum inhibitory concentration, P. aeruginosa ATCC 35151
A. baumannii PBP2 = A. baumannii PBP2 (Acinetobacter baumannii, UniProt D0C8Z9); assay: Bocillin-FL competition binding via gel filtration, A. baumannii PBP2
Sequence of A. baumannii PBP2 (D0C8Z9 whole entry): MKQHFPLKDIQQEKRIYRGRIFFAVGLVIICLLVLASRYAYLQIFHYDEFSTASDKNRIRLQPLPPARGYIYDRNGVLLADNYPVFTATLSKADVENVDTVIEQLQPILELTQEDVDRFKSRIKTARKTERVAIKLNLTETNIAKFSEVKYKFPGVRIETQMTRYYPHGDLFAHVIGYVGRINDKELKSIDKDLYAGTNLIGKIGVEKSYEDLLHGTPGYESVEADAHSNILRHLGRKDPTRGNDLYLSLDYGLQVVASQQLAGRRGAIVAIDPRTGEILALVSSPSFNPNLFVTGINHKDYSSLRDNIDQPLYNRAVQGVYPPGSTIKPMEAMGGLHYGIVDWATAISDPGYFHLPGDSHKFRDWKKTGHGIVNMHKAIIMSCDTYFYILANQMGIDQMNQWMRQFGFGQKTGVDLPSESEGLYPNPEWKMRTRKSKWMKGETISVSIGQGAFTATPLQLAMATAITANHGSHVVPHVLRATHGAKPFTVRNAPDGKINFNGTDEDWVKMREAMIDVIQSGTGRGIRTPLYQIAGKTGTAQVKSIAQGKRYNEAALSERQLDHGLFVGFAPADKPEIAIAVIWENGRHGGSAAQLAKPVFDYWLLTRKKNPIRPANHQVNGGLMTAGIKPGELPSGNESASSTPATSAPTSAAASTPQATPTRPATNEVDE
How it was run: as §1

P. aeruginosa CDC-0054 = assay: microbe, parasite or virus in culture; assay type: cell-based; settings: Pseudomonas aeruginosa, CDC0054, read-out: Minimum inhibitory concentration, P. aeruginosa CDC-0054
[1] = test system: B. thailandensis ATCC 700388; assay: microbe, parasite or virus in culture; assay type: cell-based; settings: Burkholderia thailandensis, ATCC700388, read-out: Minimum inhibitory concentration (MIC), B. thailandensis ATCC 700388
A. baumannii CDC-0033 = assay: microbe, parasite or virus in culture; assay type: cell-based; settings: Acinetobacter baumannii, CDC0033, read-out: MIC, A. baumannii CDC-0033
[2] = test system: B. humptydooensis ATCC BAA-2767; assay: microbe, parasite or virus in culture; assay type: cell-based; settings: Burkholderia humptydooensis, ATCCBAA2767, read-out: Minimum inhibitory concentration (MIC), B. humptydooensis ATCC BAA-2767
A. baumannii 1258916 = assay: microbe, parasite or virus in culture; assay type: cell-based, Acinetobacter baumannii; settings: Acinetobacter baumannii, 1258916, read-out: MIC, A. baumannii 1258916
A. baumannii CDC-0045 = assay: microbe, parasite or virus in culture; assay type: cell-based; settings: Acinetobacter baumannii, CDC0045, read-out: MIC, A. baumannii CDC-0045
[3] = test system: P. aeruginosa (ΔmexAB-oprM); assay: Broth microdilution MIC in iron-depleted CAMHB (IDM); assay type: cell-based; settings: Pseudomonas aeruginosa; iron-depleted CAMHB (IDM); […]; read-out: Minimum inhibitory concentration, P. aeruginosa ΔmexAB-oprM

Structure (SMILES)	MIC (P. aeruginosa CDC-0110) [µg/mL]	MIC (P. aeruginosa CDC-0090) [µg/mL]	MIC (P. aeruginosa CDC-0095) [µg/mL]	MIC (A. baumannii ATCC 17978) [µg/mL]	MIC (A. baumannii CDC-0083) [µg/mL]	EC50 (A. baumannii PBP1a) [µM]	MIC (A. baumannii ATCC 19606) [µg/mL]	MIC (P. aeruginosa ATCC 35151) [µg/mL]	EC50 (A. baumannii PBP2) [µM]	MIC (P. aeruginosa CDC-0054) [µg/mL]	MIC [1] [µg/mL]	MIC (A. baumannii CDC-0033) [µg/mL]	MIC [2] [µg/mL]	MIC (A. baumannii 1258916) [µg/mL]	MIC (A. baumannii CDC-0045) [µg/mL]	MIC [3] [µg/mL]
O=C(NCCCN1CCN(C(=O)NC(C(=O)N[C@H]2Cc3ccc(F)c(C(=O)O)c3OB2O)c2cc(F)c(O)c(O)c2Cl)C(=O)C1=O)c1c(F)ccc(O)c1F (stereo partly drawn) [Example 413, (3R)-3-(2-(2-chloro-5-fluoro-3,4-dihydroxyphenyl)-2-(4-(3-(2,6-difluoro-3-hydroxybenzamido)propyl)-2,3-dioxopiperazine-1-carboxamido)acetamido)-7-fluoro-2-hydroxy-3,4-dihydro-2H-benzo[e][1,2]oxaborinine-8-carboxylic acid]	< 1	< 1	< 1	< 1	2 to 4 (≈ 2.51 to 5.03 µM)	< 10	< 1	< 1	10 to 50	< 1	2 to 4 (≈ 2.51 to 5.03 µM)	2 to 4 (≈ 2.51 to 5.03 µM)	2 to 4 (≈ 2.51 to 5.03 µM)	2 to 4 (≈ 2.51 to 5.03 µM)	2 to 4 (≈ 2.51 to 5.03 µM)	< 1
O=C(NCCCS(=O)(=O)N1CCN(C(=O)NC(C(=O)N[C@H]2Cc3ccc(F)c(C(=O)O)c3OB2O)c2cc(F)c(O)c(O)c2Cl)C1=O)Nc1cccc(O)c1 (stereo partly drawn) [Example 277, (3R)-3-(2-(2-chloro-5-fluoro-3,4-dihydroxyphenyl)-2-(3-((3-(3-(3-hydroxyphenyl)ureido)propyl)sulfonyl)-2-oxoimidazolidine-1-carboxamido)acetamido)-7-fluoro-2-hydroxy-3,4-dihydro-2H-benzo[e][1,2]oxaborinine-8-carboxylic acid]	8 to 16 (≈ 9.87 to 19.7 µM)	2 to 4 (≈ 2.47 to 4.93 µM)	8 to 16 (≈ 9.87 to 19.7 µM)	< 1	< 1	< 10	< 1	< 1	< 10	2 to 4 (≈ 2.47 to 4.93 µM)	32 to 64 (≈ 39.5 to 78.9 µM)	2 to 4 (≈ 2.47 to 4.93 µM)	> 128	2 to 4 (≈ 2.47 to 4.93 µM)	2 to 4 (≈ 2.47 to 4.93 µM)	< 1
O=C(O)c1c(F)ccc2c1OB(O)[C@@H](NC(=O)C(NC(=O)N1CCN(C3CCN(C(=O)Nc4cccc(O)c4)CC3)C(=O)C1=O)c1cc(F)c(O)c(O)c1Cl)C2 (stereo partly drawn) [Example 424, (3R)-3-(2-(2-chloro-5-fluoro-3,4-dihydroxyphenyl)-2-(4-(1-((3-hydroxyphenyl)carbamoyl)piperidin-4-yl)-2,3-dioxopiperazine-1-carboxamido)acetamido)-7-fluoro-2-hydroxy-3,4-dihydro-2H-benzo[e][1,2]oxaborinine-8-carboxylic acid]	< 1	< 1	< 1	< 1	2 to 4 (≈ 2.5 to 4.99 µM)	< 10	< 1	< 1	< 10	< 1	< 1	< 1	2 to 4 (≈ 2.5 to 4.99 µM)	< 1	< 1	< 1
O=C(O)c1c(F)ccc2c1OB(O)[C@@H](NC(=O)C(NC(=O)N1CCN(C3CCN(C(=O)c4cccc(O)c4)CC3)C(=O)C1=O)c1cc(F)c(O)c(O)c1Cl)C2 (stereo partly drawn) [Example 293, (3R)-3-(2-(2-chloro-5-fluoro-3,4-dihydroxyphenyl)-2-(4-(1-(3-hydroxybenzoyl)piperidin-4-yl)-2,3-dioxopiperazine-1-carboxamido)acetamido)-7-fluoro-2-hydroxy-3,4-dihydro-2H-benzo[e][1,2]oxaborinine-8-carboxylic acid]	< 1	2 to 4 (≈ 2.54 to 5.09 µM)	2 to 4 (≈ 2.54 to 5.09 µM)	< 1	< 1	10 to 50	< 1	< 1	10 to 50	< 1	< 1	2 to 4 (≈ 2.54 to 5.09 µM)	< 1	< 1	< 1	< 1
O=C(NCCCN1CCN(C(=O)N[C@@H](C(=O)N[C@H]2Cc3ccc(F)c(C(=O)O)c3OB2O)c2cc(F)c(O)c(O)c2Cl)C(=O)C1=O)c1cc(F)c(O)cc1F (single isomer, unassigned) [Example 473]	< 1	2 to 4 (≈ 2.51 to 5.03 µM)	< 1	< 1	> 128	< 10	< 1	< 1	< 10	< 1	< 1	2 to 4 (≈ 2.51 to 5.03 µM)	< 1	2 to 4 (≈ 2.51 to 5.03 µM)	< 1	< 1
O=C(O)c1c(F)ccc2c1OB(O)[C@@H](NC(=O)C(NC(=O)N1CCN(C3CCN(S(=O)(=O)c4ccc(O)cc4)CC3)C(=O)C1=O)c1cc(F)c(O)c(O)c1Cl)C2 (stereo partly drawn) [Example 429, (3R)-3-(2-(2-chloro-5-fluoro-3,4-dihydroxyphenyl)-2-(4-(1-((4-hydroxyphenyl)sulfonyl)piperidin-4-yl)-2,3-dioxopiperazine-1-carboxamido)acetamido)-7-fluoro-2-hydroxy-3,4-dihydro-2H-benzo[e][1,2]oxaborinine-8-carboxylic acid]	< 1	< 1	2 to 4 (≈ 2.43 to 4.87 µM)	< 1	8 to 16 (≈ 9.73 to 19.5 µM)	< 10	< 1	< 1	< 10	< 1	8 to 16 (≈ 9.73 to 19.5 µM)	2 to 4 (≈ 2.43 to 4.87 µM)	> 128	< 1	< 1	< 1
O=C(NCCCN1CCN(C(=O)NC(C(=O)N[C@H]2Cc3ccc(F)c(C(=O)O)c3OB2O)c2cc(F)c(O)c(O)c2Cl)C(=O)C1=O)c1ccncc1Cl (stereo partly drawn) [Example 295, (3R)-3-(2-(2-chloro-5-fluoro-3,4-dihydroxyphenyl)-2-(4-(3-(3-chloroisonicotinamido)propyl)-2,3-dioxopiperazine-1-carboxamido)acetamido)-7-fluoro-2-hydroxy-3,4-dihydro-2H-benzo[e][1,2]oxaborinine-8-carboxylic acid]	< 1	< 1	< 1	< 1	< 1	10 to 50	< 1	< 1	10 to 50	2 to 4 (≈ 2.57 to 5.13 µM)	2 to 4 (≈ 2.57 to 5.13 µM)	2 to 4 (≈ 2.57 to 5.13 µM)	< 1	< 1	< 1	< 1
